Format in all cases: cell-based
The target of assay [1] is T1, RAMP3-CLR (AM2 receptor) (Homo sapiens, UniProt O60896+Q16602).
T1 construct: FLAG; expressed in transfected cells; host or cells: HEK-293 or HEK-293S cells, transient transfection, 1:1 RAMP:CLR
Put plainly: S. cerevisiae growth assay, GPA1/Gαi chimera, RAMP3 + CLR. As to conditions: percentage of yeast strain MMY11 (lacking GPA1); 20 h; mean ± S.E., n = 7. How it is done:
FIGURE 3. […] Reporter gene activity was determined following 20 h of stimulation.
General yeast procedures were performed as described previously ([22], [24]). The human CLR was introduced into yeast cells under the control of the PGK promoter using a plasmid containing ura3 (pDT-PGK). The three human RAMPs were introduced into yeast under the control of the GAPDH promoter using plasmids containing leu2 (p425-GPD) ([25]). S. cerevisiae dual reporter strains expressing chimeras of yeast GPA1(1–467) (GPA1/Gα) with the five C-terminal amino acids of […] human G proteins representing Gαs, Gα16, Gαq, Gαo, Gαi1/2, Gαi3, Gαz, Gα12, Gα13, and Gα14 (MMY84–MMY93) were used in this study ([52]). […] Receptor signaling was measured using the yeast growth assay as described previously ([24]). […] A fluorescein signal was detected as an increase in fluorescence (excitation wavelength = 485 nm, emission wavelength = 535 nm) as a measure of growth. Different concentrations of ligand (0.01 nM–100 μM) were assayed using 96-well plates, and fluorescence was detected using a Tecan Infinite M200 microplate reader (Tecan Ultra Evolution, Reading, UK) or a Mithras LB 940 microplate reader (Berthold Technologies, Harpenden, UK) for 20 h. […]

The target in assay [2] is T2, RAMP1-CLR (CGRP receptor) (Homo sapiens, UniProt O60894+Q16602).
T2 construct: FLAG; expressed in transfected cells; host or cells: HEK-293 or HEK-293S cells, transient transfection, 1:1 RAMP:CLR
Put plainly: S. cerevisiae growth assay, GPA1/Gαs chimera, RAMP1 + CLR. As to conditions: percentage of yeast strain MMY11 (lacking GPA1); 20 h; mean ± S.E., n = 6. Here is the method: FIGURE 1. […] Reporter gene activity was determined following 20 h of stimulation with each ligand. Data are expressed as a percentage of the maximum response observed in yeast strain MMY11 (lacking GPA1) and are means ± S.E. of n individual data sets. […] Data were determined as statistically different from the cognate ligand for each receptor (*, p < 0.05; **, p < 0.01; ***, p < 0.001) using a one-way ANOVA with Bonferroni's post-test.
General yeast procedures were performed as described previously ([22], [24]). The human CLR was introduced into yeast cells under the control of the PGK promoter using a plasmid containing ura3 (pDT-PGK). […] Receptor signaling was measured using the yeast growth assay as described previously ([24]). […] A fluorescein signal was detected as an increase in fluorescence (excitation wavelength = 485 nm, emission wavelength = 535 nm) as a measure of growth. Different concentrations of ligand (0.01 nM–100 μM) were assayed using 96-well plates, and fluorescence was detected using a Tecan Infinite M200 microplate reader (Tecan Ultra Evolution, Reading, UK) or a Mithras LB 940 microplate reader (Berthold Technologies, Harpenden, UK) for 20 h.
Data analysis for cAMP assays was performed in GraphPad Prism 6.0f (San Diego, CA). […] To quantitate the ligand-dependent response in the yeast system, a strain lacking GPA1 (MMY11), grown in rich medium, was used as a standard ([72]). […]

For assay [3], the target named is T1, RAMP3-CLR (AM2 receptor). Put plainly: S. cerevisiae growth assay, GPA1/Gαq chimera, RAMP3 + CLR. As to conditions: percentage of yeast strain MMY11 (lacking GPA1); 24-h; mean ± S.E., n = 6. Here is the method: FIGURE 7. […] Reporter gene activity was determined following 24-h stimulation. All data are expressed as percentage of the maximum response observed in yeast strain MMY11 and are means ± S.E. of n individual data sets. D, Bar chart showing the efficacy of each ligand for each RAMP-CLR combination at the Gαq chimera determined via application of the operational model of receptor agonism (Ref. [34] and Table 1). Data were determined as statistically different from the cognate ligand for each receptor (***, p < 0.001; ****, p < 0.0001) using one-way ANOVA with Bonferroni's post-test. E, signaling bias plots were calculated as ΔΔ(τ/Ka) values on a logarithmic scale for each ligand and for each chimera G protein for the three individual RAMP-CLR complexes.
General yeast procedures were performed as described previously ([22], [24]). […] Receptor signaling was measured using the yeast growth assay as described previously ([24]). […] A fluorescein signal was detected as an increase in fluorescence (excitation wavelength = 485 nm, emission wavelength = 535 nm) as a measure of growth. Different concentrations of ligand (0.01 nM–100 μM) were assayed using 96-well plates, and fluorescence was detected using a Tecan Infinite M200 microplate reader (Tecan Ultra Evolution, Reading, UK) or a Mithras LB 940 microplate reader (Berthold Technologies, Harpenden, UK) for 20 h. […]

The structures appear in SMILES notation.

In paper PMC5063977 (The Journal of Biological Chemistry, 2016) one finds Emax data, which are given here for two compounds.

T1 sequence (Q16602 23-461): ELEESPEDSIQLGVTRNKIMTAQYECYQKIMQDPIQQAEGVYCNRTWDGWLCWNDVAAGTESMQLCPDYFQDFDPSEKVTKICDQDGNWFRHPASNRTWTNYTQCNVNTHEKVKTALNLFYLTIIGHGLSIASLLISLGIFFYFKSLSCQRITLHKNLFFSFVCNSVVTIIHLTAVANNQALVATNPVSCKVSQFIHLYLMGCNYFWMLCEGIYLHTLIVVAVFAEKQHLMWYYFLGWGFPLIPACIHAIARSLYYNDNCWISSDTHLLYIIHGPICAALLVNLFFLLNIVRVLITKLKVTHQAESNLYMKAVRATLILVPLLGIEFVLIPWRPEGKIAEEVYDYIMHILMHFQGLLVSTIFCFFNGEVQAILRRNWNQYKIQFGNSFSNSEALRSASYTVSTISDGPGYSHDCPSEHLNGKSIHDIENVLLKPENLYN
T1 sequence (O60896 24-148): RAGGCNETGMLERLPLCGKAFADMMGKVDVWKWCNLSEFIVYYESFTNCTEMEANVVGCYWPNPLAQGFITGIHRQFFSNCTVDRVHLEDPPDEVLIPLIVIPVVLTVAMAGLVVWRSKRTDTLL
T2 sequence (Q16602 23-461): as the sequence (Q16602 23-461) above
T2 sequence (O60894 27-148): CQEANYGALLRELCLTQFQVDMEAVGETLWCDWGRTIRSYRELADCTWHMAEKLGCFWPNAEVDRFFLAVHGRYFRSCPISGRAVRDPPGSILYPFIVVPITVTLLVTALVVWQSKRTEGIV

`CSCC[C@H](NC(=O)[C@H](CC(C)C)NC(=O)[C@H](CCC(N)=O)NC(=O)[C@H](Cc1c[nH]c2ccccc12)NC(=O)[C@H](CC(C)C)NC(=O)[C@H](CCCNC(=N)N)NC(=O)[C@H](Cc1c[nH]cn1)NC(=O)[C@H](CO)NC(=O)[C@H](CC(C)C)NC(=O)[C@H](CC(N)=O)NC(=O)[C@H](CCC(N)=O)NC(=O)[C@@H](NC(=O)[C@H](CCC(N)=O)NC(=O)[C@@H]1CSSC[C@H](NC(=O)CNC(=O)[C@@H](NC(=O)[C@H](CCCNC(=N)N)NC(=O)[C@H](CC(C)C)NC(=O)[C@H](CC(C)C)NC(=O)[C@H](CCC(N)=O)NC(=O)[C@H](C)NC(=O)[C@H](CCC(N)=O)NC(=O)[C@@H](N)[C@@H](C)O)C(C)C)C(=O)N[C@@H](C(C)C)C(=O)N[C@@H](CC(C)C)C(=O)NCC(=O)N[C@@H]([C@@H](C)O)C(=O)N1)C(C)C)C(=O)NCC(=O)N1CCC[C@H]1C(=O)N[C@@H](C)C(=O)NCC(=O)N[C@@H](CCCNC(=N)N)C(=O)N[C@@H](CCC(N)=O)C(=O)N[C@@H](CC(=O)O)C(=O)N[C@@H](CO)C(=O)N[C@@H](C)C(=O)N1CCC[C@H]1C(=O)N[C@H](C(=O)N[C@@H](CC(=O)O)C(=O)N1CCC[C@H]1C(=O)N[C@@H](CO)C(=O)N[C@@H](CO)C(=O)N1CCC[C@H]1C(=O)N[C@@H](Cc1c[nH]cn1)C(=O)N[C@@H](CO)C(=O)N[C@@H](Cc1ccc(O)cc1)C(N)=O)C(C)C` [AM2, adrenomedullin 2]: the Emax on RAMP3-CLR (AM2 receptor) [1] worked out at 15.7 ± 2.1%.

With `CC[C@H](C)[C@H](NC(=O)[C@H](CCC(N)=O)NC(=O)[C@H](Cc1c[nH]cn1)NC(=O)[C@H](C)NC(=O)[C@H](CC(C)C)NC(=O)[C@H](CCCCN)NC(=O)[C@H](CCC(N)=O)NC(=O)[C@@H](NC(=O)[C@@H](NC(=O)[C@@H]1CSSC[C@H](NC(=O)CNC(=O)[C@H](Cc2ccccc2)NC(=O)[C@H](CO)NC(=O)[C@H](CCCNC(=N)N)NC(=O)[C@H](CC(C)C)NC(=O)CNC(=O)[C@H](CCC(N)=O)NC(=O)[C@H](Cc2ccccc2)NC(=O)[C@H](CC(N)=O)NC(=O)[C@H](CC(N)=O)NC(=O)[C@H](CCSC)NC(=O)[C@H](CO)NC(=O)[C@H](CCC(N)=O)NC(=O)[C@H](CCCNC(=N)N)NC(=O)[C@@H](N)Cc2ccc(O)cc2)C(=O)N[C@@H](CCCNC(=N)N)C(=O)N[C@@H](Cc2ccccc2)C(=O)NCC(=O)N[C@@H]([C@@H](C)O)C(=O)N1)[C@@H](C)O)C(C)C)C(=O)N[C@@H](Cc1ccc(O)cc1)C(=O)N[C@@H](CCC(N)=O)C(=O)N[C@@H](Cc1ccccc1)C(=O)N[C@H](C(=O)N[C@@H](CC(=O)O)C(=O)N[C@@H](CCCCN)C(=O)N[C@@H](CC(=O)O)C(=O)N[C@@H](CCCCN)C(=O)N[C@@H](CC(=O)O)C(=O)N[C@@H](CC(N)=O)C(=O)N[C@H](C(=O)N[C@@H](C)C(=O)N1CCC[C@H]1C(=O)N[C@@H](CCCNC(=N)N)C(=O)N[C@@H](CO)C(=O)N[C@@H](CCCCN)C(=O)N[C@H](C(=O)N[C@@H](CO)C(=O)N1CCC[C@H]1C(=O)N[C@@H](CCC(N)=O)C(=O)NCC(=O)N[C@@H](Cc1ccc(O)cc1)C(N)=O)[C@@H](C)CC)C(C)C)[C@@H](C)O` [AM, adrenomedullin], the Emax stood at 20.4 ± 2.8% in assay [2], 26.7 ± 1.8% at RAMP3-CLR (AM2 receptor) [1] and 25.6 ± 2% on RAMP3-CLR (AM2 receptor) [3].
